In US20080009418A1, “Selective Inhibitors” (Alchemia LTD., priority 2004, published 2008):

Columns and labels:
[1] = target: T1, Human δ-opioid (DOP) (Homo sapiens, UniProt P41143); test: Radioligand binding, human δ-opioid (DOP) membranes, FlashPlate, [3H]-Bremazocine; settings: compound at 10 μM; for A1 radioligand binding, percentage inhibition / A1: inhibition of radioligand binding: [3H]-Bremazocine; for A1: inhibition of radioligand binding: human DOP membranes
T1 construct: purchased Perkin Elmer Biosignal
T1 sequence (P41143 whole entry): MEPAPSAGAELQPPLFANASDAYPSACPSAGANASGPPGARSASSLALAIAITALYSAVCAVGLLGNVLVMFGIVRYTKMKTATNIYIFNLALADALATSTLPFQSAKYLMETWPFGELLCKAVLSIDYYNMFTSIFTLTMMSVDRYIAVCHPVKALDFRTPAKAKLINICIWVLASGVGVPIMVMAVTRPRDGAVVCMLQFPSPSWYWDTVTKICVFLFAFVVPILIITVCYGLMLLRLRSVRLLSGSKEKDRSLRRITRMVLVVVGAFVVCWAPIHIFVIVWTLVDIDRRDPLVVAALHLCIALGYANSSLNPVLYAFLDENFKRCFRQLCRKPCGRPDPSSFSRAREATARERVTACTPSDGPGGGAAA
Outline: (§1)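 Cloned human receptor membranes were coated onto FlashPlate wells and incubated with radioligand and compound (added from a 0.5 mM DMSO daughter plate) for 1 hour at room temperature in the dark. Scintillation counting gave percent inhibition, with DMSO defining total and reference ligand defining non-specific binding.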

[2] = target: T2, Human Melanocortin (MC4) (Homo sapiens, UniProt P32245); test: Radioligand binding, human melanocortin MC4 membranes, FlashPlate, [125I]-NDP-αMSH; settings: compound at 10 μM; for A4 radioligand binding, percentage inhibition / A4: inhibition of radioligand binding: [125I]-NDP-αMSH; for A4: inhibition of radioligand binding: human MC4 membranes
T2 construct: purchased Perkin Elmer Biosignal
T2 sequence (P32245 whole entry): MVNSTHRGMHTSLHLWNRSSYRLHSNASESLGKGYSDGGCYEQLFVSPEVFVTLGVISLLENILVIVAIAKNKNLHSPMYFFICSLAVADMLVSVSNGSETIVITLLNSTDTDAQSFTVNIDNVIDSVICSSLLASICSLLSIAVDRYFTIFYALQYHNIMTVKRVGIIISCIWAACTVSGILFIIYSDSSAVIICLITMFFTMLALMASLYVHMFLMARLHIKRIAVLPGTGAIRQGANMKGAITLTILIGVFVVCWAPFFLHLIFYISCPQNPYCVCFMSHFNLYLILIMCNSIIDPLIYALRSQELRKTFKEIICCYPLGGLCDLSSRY
Outline: as §1

[3] = target: T3, Human Melanocortin (MC3) (Homo sapiens, UniProt P41968); test: Radioligand binding, human melanocortin MC3 membranes, FlashPlate, [125I]-NDP-αMSH; settings: compound at 10 μM; for A3 radioligand binding, percentage inhibition / A3: inhibition of radioligand binding: [125I]-NDP-αMSH; for A3: inhibition of radioligand binding: human MC3 membranes
T3 construct: purchased Perkin Elmer Biosignal
T3 sequence (P41968 whole entry): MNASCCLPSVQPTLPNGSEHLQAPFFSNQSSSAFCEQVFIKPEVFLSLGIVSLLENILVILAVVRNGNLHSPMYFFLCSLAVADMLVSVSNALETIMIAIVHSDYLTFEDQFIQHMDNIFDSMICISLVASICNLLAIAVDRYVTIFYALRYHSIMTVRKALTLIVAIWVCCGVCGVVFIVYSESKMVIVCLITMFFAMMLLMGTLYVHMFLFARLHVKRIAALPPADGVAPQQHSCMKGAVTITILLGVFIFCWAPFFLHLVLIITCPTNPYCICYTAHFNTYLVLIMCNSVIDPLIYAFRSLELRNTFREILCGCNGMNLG
Outline: as §1

[4] = target: T4, Human κ-Opioid (KOP) (Homo sapiens, UniProt P41145); test: Radioligand binding, human κ-opioid (KOP) membranes, filtration, [3H]-Diprenorphine; settings: compound at 10 μM; for A2 radioligand binding, percentage inhibition / A2: inhibition of radioligand binding: [3H]-Diprenorphine; for A2: inhibition of radioligand binding: human KOP membranes
T4 construct: purchased Perkin Elmer Biosignal
T4 sequence (P41145 whole entry): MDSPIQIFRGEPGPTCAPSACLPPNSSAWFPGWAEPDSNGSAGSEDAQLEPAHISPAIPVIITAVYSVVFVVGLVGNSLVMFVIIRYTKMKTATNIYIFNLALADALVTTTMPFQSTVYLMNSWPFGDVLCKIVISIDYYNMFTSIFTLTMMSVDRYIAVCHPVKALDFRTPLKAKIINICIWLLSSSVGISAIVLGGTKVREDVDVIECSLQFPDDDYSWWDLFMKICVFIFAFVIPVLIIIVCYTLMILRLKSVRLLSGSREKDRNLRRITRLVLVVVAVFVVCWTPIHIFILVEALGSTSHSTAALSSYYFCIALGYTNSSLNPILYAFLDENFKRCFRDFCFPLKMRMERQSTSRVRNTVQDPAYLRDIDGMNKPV
Outline: (§2)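 Filtration binding on cloned human receptor membranes (1 Unit/well), [125I]-Substance P for NK1 and [3H]-Diprenorphine for KOP, 1 h at room temperature. Filters PEI-presoaked, washed with cold 50 mM Tris-HCl pH 7.4, counted by scintillation; percent inhibition calculated, reference ligand defining non-specific binding.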

[5] = target: T5, Human μ-opioid (MOP) (Homo sapiens, UniProt P35372); test: Radioligand binding, human μ-opioid (MOP) membranes, FlashPlate, [3H]-Naloxone; settings: compound at 10 μM; for A7 radioligand binding, percentage inhibition / A7: inhibition of radioligand binding: [3H]-Naloxone; for A7: inhibition of radioligand binding: human MOP membranes
T5 construct: purchased Perkin Elmer Biosignal
T5 sequence (P35372 whole entry): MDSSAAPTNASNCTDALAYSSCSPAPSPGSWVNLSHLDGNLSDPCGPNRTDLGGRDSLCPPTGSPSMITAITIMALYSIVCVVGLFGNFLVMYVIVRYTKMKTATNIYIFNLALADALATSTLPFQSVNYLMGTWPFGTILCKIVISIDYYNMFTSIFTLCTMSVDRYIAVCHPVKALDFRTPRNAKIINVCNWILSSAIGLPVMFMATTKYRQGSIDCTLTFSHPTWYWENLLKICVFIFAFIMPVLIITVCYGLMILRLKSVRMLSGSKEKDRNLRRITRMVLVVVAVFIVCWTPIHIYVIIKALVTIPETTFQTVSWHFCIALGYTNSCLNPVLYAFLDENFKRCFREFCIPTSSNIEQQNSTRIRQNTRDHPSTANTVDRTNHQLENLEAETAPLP
Outline: as §1

[6] = target: T6, Mouse urotensin (mUR2) (Mus musculus, UniProt Q8VIH9); test: Radioligand binding, mouse urotensin mUR2 membranes, FlashPlate, [125I]-Urotensin II; settings: compound at 10 μM; for A11 radioligand binding, percentage inhibition / A11: inhibition of radioligand binding: [125I]-Urotensin II; for A11: inhibition of radioligand binding: mouse mUR2 membranes
T6 construct: purchased Perkin Elmer Biosignal
T6 sequence (Q8VIH9 1-385): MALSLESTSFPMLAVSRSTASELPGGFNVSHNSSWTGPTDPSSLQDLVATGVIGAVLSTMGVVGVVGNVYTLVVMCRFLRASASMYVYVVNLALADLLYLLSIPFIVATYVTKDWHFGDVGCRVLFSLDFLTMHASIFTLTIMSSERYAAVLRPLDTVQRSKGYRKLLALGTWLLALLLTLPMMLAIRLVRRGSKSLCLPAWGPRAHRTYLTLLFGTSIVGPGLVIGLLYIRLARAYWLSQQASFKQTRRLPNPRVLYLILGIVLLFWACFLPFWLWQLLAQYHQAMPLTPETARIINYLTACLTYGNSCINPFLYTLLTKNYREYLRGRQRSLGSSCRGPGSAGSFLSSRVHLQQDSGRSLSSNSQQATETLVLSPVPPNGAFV
Outline: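 Cloned mouse urotensin (mUR2) receptor membranes from Perkin Elmer Biosignal were immobilized in FlashPlate microplates using a proprietary coating. Each well got 19.5 μl buffer, then 0.5 μl of DMSO, reference ligand, or compound. Adding 5 μl of [125I]-Urotensin II, diluted to 5× final concentration in binding buffer, started binding. Plates were sealed with TopSeal-A and incubated 1 hour at room temperature in the dark. Wells were counted for 30 seconds each on a TopCount after a 60-second delay, and percentage inhibition was calculated.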

[7] = target: T7, Human melanocortin (MC5) (Homo sapiens, UniProt P33032); test: Radioligand binding, human melanocortin MC5 membranes, FlashPlate, [125I]-NDP-αMSH; settings: compound at 10 μM; for A5 radioligand binding, percentage inhibition / A5: inhibition of radioligand binding: [125I]-NDP-αMSH; for A5: inhibition of radioligand binding: human MC5 membranes
T7 construct: purchased Perkin Elmer Biosignal
T7 sequence (P33032 whole entry): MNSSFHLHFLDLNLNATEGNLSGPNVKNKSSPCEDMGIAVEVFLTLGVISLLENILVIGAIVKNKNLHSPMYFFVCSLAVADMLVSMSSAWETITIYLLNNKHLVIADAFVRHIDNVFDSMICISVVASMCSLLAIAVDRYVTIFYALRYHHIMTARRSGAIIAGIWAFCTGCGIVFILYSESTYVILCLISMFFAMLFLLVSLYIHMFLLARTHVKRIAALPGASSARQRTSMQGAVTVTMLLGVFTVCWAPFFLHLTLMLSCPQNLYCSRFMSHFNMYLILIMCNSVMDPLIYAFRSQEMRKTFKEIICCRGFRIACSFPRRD
Outline: as §1

[8] = target: T8, Human neurokinin (NK1) (Homo sapiens, UniProt P25103); test: Radioligand binding, human neurokinin NK1 membranes, filtration, [125I]-Substance P; settings: compound at 10 μM; for A8 radioligand binding, percentage inhibition / A8: inhibition of radioligand binding: [125I]-Substance P; for A8: inhibition of radioligand binding: human NK1 membranes
T8 construct: purchased Perkin Elmer Biosignal
T8 sequence (P25103 whole entry): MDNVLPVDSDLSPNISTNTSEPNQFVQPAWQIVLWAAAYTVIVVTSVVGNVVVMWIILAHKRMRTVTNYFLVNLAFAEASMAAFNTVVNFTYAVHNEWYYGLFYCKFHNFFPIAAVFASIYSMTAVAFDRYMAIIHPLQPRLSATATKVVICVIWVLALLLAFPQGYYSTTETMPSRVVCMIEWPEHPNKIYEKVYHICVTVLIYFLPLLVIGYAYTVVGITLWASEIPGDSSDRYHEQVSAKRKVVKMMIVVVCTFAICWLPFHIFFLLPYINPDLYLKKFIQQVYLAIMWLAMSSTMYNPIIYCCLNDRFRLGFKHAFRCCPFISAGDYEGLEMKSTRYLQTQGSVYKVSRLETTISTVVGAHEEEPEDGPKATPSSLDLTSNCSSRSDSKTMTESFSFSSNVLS
Outline: as §2

[9] = target: T9, Human melanin-concentrating hormone (MCH1) (Homo sapiens, UniProt Q99705); test: Radioligand binding, human melanin-concentrating hormone MCH1 membranes, FlashPlate, [125I]-S36057; settings: compound at 10 μM; for A6 radioligand binding, percentage inhibition: [125I]-S36057; for A6: inhibition of radioligand binding: [125I]-S36057, human MCH1 membranes
T9 construct: purchased Perkin Elmer Biosignal
T9 sequence (Q99705 whole entry): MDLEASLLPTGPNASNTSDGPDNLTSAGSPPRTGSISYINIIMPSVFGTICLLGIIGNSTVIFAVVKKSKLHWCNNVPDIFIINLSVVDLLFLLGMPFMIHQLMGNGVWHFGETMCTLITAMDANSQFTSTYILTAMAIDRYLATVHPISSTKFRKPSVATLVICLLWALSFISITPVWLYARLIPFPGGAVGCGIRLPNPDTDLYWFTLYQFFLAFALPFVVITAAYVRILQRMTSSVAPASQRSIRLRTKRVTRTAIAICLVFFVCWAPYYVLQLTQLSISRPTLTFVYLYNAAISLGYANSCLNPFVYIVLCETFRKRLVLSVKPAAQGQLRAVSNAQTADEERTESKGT
Outline: as §1

[10] = target: T10, Human opioid (ORL1) (Homo sapiens, UniProt P41146); test: Radioligand binding, human opioid ORL1 membranes, FlashPlate, [125I]-Nociceptin; settings: compound at 10 μM; for A10 radioligand binding, percentage inhibition / A10: inhibition of radioligand binding: [125I]-Nociceptin
T10 construct: purchased Perkin Elmer Biosignal
T10 sequence (P41146 whole entry): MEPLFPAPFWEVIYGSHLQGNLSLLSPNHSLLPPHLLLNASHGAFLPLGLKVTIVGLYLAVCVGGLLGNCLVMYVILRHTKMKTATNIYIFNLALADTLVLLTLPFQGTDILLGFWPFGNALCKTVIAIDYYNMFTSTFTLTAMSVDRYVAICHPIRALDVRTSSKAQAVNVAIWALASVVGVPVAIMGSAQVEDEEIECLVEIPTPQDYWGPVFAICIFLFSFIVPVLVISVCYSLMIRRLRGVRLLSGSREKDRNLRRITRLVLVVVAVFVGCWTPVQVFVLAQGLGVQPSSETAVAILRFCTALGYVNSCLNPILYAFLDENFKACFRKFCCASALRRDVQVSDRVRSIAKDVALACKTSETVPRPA
Outline: as §1

[11] = target: T11, Human neuropeptide Y (NPY-Y1) (Homo sapiens, UniProt P25929); test: Radioligand binding, human neuropeptide Y NPY-Y1 membranes, FlashPlate, [125I]-PYY; settings: compound at 10 μM; for A9 radioligand binding, percentage inhibition / A9: inhibition of radioligand binding: [125I]-PYY
T11 construct: purchased Perkin Elmer Biosignal
T11 sequence (P25929 1-384): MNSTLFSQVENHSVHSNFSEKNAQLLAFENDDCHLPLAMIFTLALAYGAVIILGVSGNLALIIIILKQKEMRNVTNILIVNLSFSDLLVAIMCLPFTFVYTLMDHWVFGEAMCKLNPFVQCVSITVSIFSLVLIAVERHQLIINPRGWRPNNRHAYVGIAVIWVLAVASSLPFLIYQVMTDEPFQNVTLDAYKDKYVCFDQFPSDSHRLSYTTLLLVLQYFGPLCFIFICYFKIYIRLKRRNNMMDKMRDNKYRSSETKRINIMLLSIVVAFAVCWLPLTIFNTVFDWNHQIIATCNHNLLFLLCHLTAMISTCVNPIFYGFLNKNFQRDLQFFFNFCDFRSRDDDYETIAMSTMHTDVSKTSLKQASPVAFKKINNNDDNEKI
Outline: as §1

SMILES	A1 radioligand binding, percentage inhibition [1]	A4 radioligand binding, percentage inhibition [2]	A3 radioligand binding, percentage inhibition [3]	A2 radioligand binding, percentage inhibition [4]	A7 radioligand binding, percentage inhibition [5]	A11 radioligand binding, percentage inhibition [6]	A5 radioligand binding, percentage inhibition [7]	A8 radioligand binding, percentage inhibition [8]	A6 radioligand binding, percentage inhibition [9]	A10 radioligand binding, percentage inhibition [10]	A9 radioligand binding, percentage inhibition [11]	A1: inhibition of radioligand binding [1]	A4: inhibition of radioligand binding [2]	A3: inhibition of radioligand binding [3]	A2: inhibition of radioligand binding [4]	A7: inhibition of radioligand binding [5]	A11: inhibition of radioligand binding [6]	A5: inhibition of radioligand binding [7]	A8: inhibition of radioligand binding [8]	A6: inhibition of radioligand binding [9]	also measured
COC[C@H]1OC(OCc2ccc3ccccc3c2)[C@H](NC(=O)CNC(=N)N)[C@@H](OCc2ccc(-c3ccccc3)cc2)[C@@H]1O (stereo partly shown) [compound 15]																					A1 radioligand binding inhibition ([1]; human δ-opioid (DOP) membranes): − (“−” indicates less than 50% inhibition at 10 μM); A4 radioligand binding inhibition ([2]; human melanocortin MC4 membranes): + (“+” indicates greater than 50% inhibition at 10 μM); A3 radioligand binding inhibition ([3]; human melanocortin MC3 membranes): − (“−” indicates less than 50% inhibition at 10 μM); A2 radioligand binding inhibition ([4]; human κ-opioid (KOP) membranes): − (“−” indicates less than 50% inhibition at 10 μM); A7 radioligand binding inhibition ([5]; human μ-opioid (MOP) membranes): + (“+” indicates greater than 50% inhibition at 10 μM); A11 radioligand binding inhibition ([6]; mouse urotensin mUR2 membranes): − (“−” indicates less than 50% inhibition at 10 μM); A5 radioligand binding inhibition ([7]; human melanocortin MC5 membranes): + (“+” indicates greater than 50% inhibition at 10 μM); A8 radioligand binding inhibition ([8]; human neurokinin NK1 membranes): − (“−” indicates less than 50% inhibition at 10 μM); A6 radioligand binding inhibition ([9]; human MCH1 membranes): + (“+” indicates greater than 50% inhibition at 10 μM); A10 radioligand binding inhibition ([10]; human ORL1 membranes): − (“−” indicates less than 50% inhibition at 10 μM); A9 radioligand binding inhibition ([11]; human NPY-Y1 membranes): − (“−” indicates less than 50% inhibition at 10 μM)
CO[C@H]1[C@H](O)[C@@H](COCc2cccc(O)c2)OC(OCc2ccc(-c3ccccc3)cc2)[C@@H]1NC(=O)CCCN (stereo partly shown) [compound 148]	− (“−” indicates less than 50% inhibition at 10 μM)	− (“−” indicates less than 50% inhibition at 10 μM)	− (“−” indicates less than 50% inhibition at 10 μM)	− (“−” indicates less than 50% inhibition at 10 μM)	− (“−” indicates less than 50% inhibition at 10 μM)	− (“−” indicates less than 50% inhibition at 10 μM)	− (“−” indicates less than 50% inhibition at 10 μM)	+ (“+” indicates greater than 50% inhibition at 10 μM)	− (“−” indicates less than 50% inhibition at 10 μM)	− (“−” indicates less than 50% inhibition at 10 μM)	− (“−” indicates less than 50% inhibition at 10 μM)										
N=C(N)NCC(=O)NC1C(OCc2ccc(Cl)cc2)OC(COCc2ccc(Cl)cc2)C(O)C1OCc1ccc(-c2ccccc2)cc1 (stereo not shown) [compound 425]												− (“−” indicates less than 50% inhibition at 10 μM)	+ (“+” indicates greater than 50% inhibition at 10 μM)	+ (“+” indicates greater than 50% inhibition at 10 μM)	− (“−” indicates less than 50% inhibition at 10 μM)	− (“−” indicates less than 50% inhibition at 10 μM)	− (“−” indicates less than 50% inhibition at 10 μM)	+ (“+” indicates greater than 50% inhibition at 10 μM)	+ (“+” indicates greater than 50% inhibition at 10 μM)	+ (“+” indicates greater than 50% inhibition at 10 μM)	A10: inhibition of radioligand binding ([10]; human ORL1 membranes): + (“+” indicates greater than 50% inhibition at 10 μM); A9: inhibition of radioligand binding ([11]; human NPY-Y1 membranes): − (“−” indicates less than 50% inhibition at 10 μM)
NCCC(=O)NC1C(OCc2ccc3ccccc3c2)OC(COCc2ccccc2)C(O)C1OCc1ccc(Cl)cc1 (stereo not shown) [compound 382]												− (“−” indicates less than 50% inhibition at 10 μM)	+ (“+” indicates greater than 50% inhibition at 10 μM)	− (“−” indicates less than 50% inhibition at 10 μM)	− (“−” indicates less than 50% inhibition at 10 μM)	− (“−” indicates less than 50% inhibition at 10 μM)	− (“−” indicates less than 50% inhibition at 10 μM)	+ (“+” indicates greater than 50% inhibition at 10 μM)	+ (“+” indicates greater than 50% inhibition at 10 μM)	− (“−” indicates less than 50% inhibition at 10 μM)	A10: inhibition of radioligand binding ([10]; human ORL1 membranes): − (“−” indicates less than 50% inhibition at 10 μM); A9: inhibition of radioligand binding ([11]; human NPY-Y1 membranes): − (“−” indicates less than 50% inhibition at 10 μM)
COCC1OC(OCc2ccccc2)C(NC(=O)CCN)C(OCc2ccc(Cl)cc2)C1O (stereo not shown) [compound 178]	− (“−” indicates less than 50% inhibition at 10 μM)	− (“−” indicates less than 50% inhibition at 10 μM)	− (“−” indicates less than 50% inhibition at 10 μM)	− (“−” indicates less than 50% inhibition at 10 μM)	− (“−” indicates less than 50% inhibition at 10 μM)	− (“−” indicates less than 50% inhibition at 10 μM)	+ (“+” indicates greater than 50% inhibition at 10 μM)	+ (“+” indicates greater than 50% inhibition at 10 μM)	− (“−” indicates less than 50% inhibition at 10 μM)	− (“−” indicates less than 50% inhibition at 10 μM)	− (“−” indicates less than 50% inhibition at 10 μM)										
